Source: US11806344B2, “Pharmaceutical composition comprising mineralocorticoid receptor antagonist and use thereof” (priority 2016, dated 2023)
“Also recorded” adds a separate entry of the source. Like-named read-outs stand apart in the source and are kept apart here.

What was measured:
[1] = 13-week toxicity and pharmacokinetic study in SD rats with 4-week recovery (Example 5); format: in vivo; conditions: rat, in vivo; for AUC(0-t): SD, po, read-out: AUC0-24 h; for NOAEL at 13 weeks: oral, read-out: NOAEL (no observed adverse effect level)
Procedure: (§1) Sample to test: Solid dispersion of Compound I (Compound I:PVPK30=1:8 (w/w))
(§2) Animals: SD Rats, SPF Level.
(§3) Two hundred and twenty SD rats were used in the studies. Three groups, i.e., high dose group, intermediate dose group and low dose group, were administered with Compound I with following doses, 20 males and 20 females for each group. In specific, male animals were given the suspension at the doses of 3, 9 and 30 mg/kg/day, respectively, while the females were administered at the doses of 1, 3, and 10 mg/kg/day, respectively. The animals in the control group, 20 males and 20 females, were given purified water. All animals fasted overnight before blood collections and anatomical examinations.
(§4) In addition, for the pharmacokinetic study, 9 males and 9 females were assigned into the administration group, while 3 males and 3 females were for the control group.

SD rats = test: as above; format: in vivo; conditions: 13 weeks
Procedure: as §1, §2, §3, §4

[2] = Safety, tolerability and pharmacokinetics in healthy subjects, single dose (Example 7); format: in vivo, human; conditions: human, plasma, oral
Procedure: (§5) Five groups of healthy subjects were given capsules at doses of 0.5 mg (1 capsule, 0.5 mg of Compound I per capsule), 1.0 mg (2 capsules, 0.5 mg of Compound I per capsule), 2.5 mg (1 capsule, 2.5 mg of Compound I per capsule), 10 mg (1 capsule, 10 mg of Compound I per capsule), and 30 mg (3 capsules, 10 mg of Compound I per capsule), each group containing 8 subjects. The drug administration was done only once.
(§6) The capsules mentioned above were the ones prepared in Example 2, i.e., the capsules of Capsule formulation 3 (0.5 mg of Compound I per capsule), Capsule formulation 4 (2.5 mg of Compound I per capsule), and Capsule formulation 5 (10 mg of Compound I per capsule).
(§7) Plasma samples were collected to measure plasma drug concentration, and the pharmacokinetic parameters were analyzed using the non-compartment model. Serum samples were collected to measure serum potassium levels.

healthy subjects [3] = test: as above; format: in vivo, human; conditions: single dose 0.5 to 30 mg/day
Procedure: as §5, §6, §7

[4] = Safety, tolerability and pharmacokinetics in healthy subjects, multiple doses (Example 8); format: in vivo, human; conditions: human, plasma, oral, healthy subjects, 14 days, read-out: average steady-state AUC0-24 (AUCtau)
Procedure: (§8) Two groups of healthy subjects were given capsules once a day at daily doses of 2.5 mg (1 capsule for each administration, 2.5 mg of Compound I per capsule), and 5.0 mg (2 capsules for each administration, 2.5 mg of Compound I per capsule), respectively, each group containing 6 subjects. The administration continued for 14 consecutive days. The capsules used in this study were of Capsule formulation 4 prepared in Example 2.
as §7

healthy subjects [5] = test: as above; format: in vivo, human; conditions: for average steady-state AUC0-24 (AUCtau): 14 days
Procedure: as §8, §7

[6] = Safety, tolerability and pharmacokinetics in patients having chronic kidney disease (Example 9); format: in vivo, human; conditions: human, plasma, oral, CKD patients
Description: The patients in this example were those having chronic kidney disease with symptoms of renal failure, proteinuria, acute kidney injury, glomerular nephritis, renal cyst, urinary frequency, renal calculus, obstructive uropathy, and etc. These patients also had other diseases or implications such as diabetes mellitus, hyperlipidemia, hypercholesterolemia, hypertension, peripheral vascular diseases, coronary artery disease, and etc.
These patients continued to take the medications that they had prior to the present clinical trial, the medications being, for example, angiotensin converting enzyme inhibitors, such as Lisinopril, Benazepril, Enalapril, and Enalapril Maleate; angiotensin II receptor blockers, such as Valsartan and Losartan; calcium channel blockers, such as Amlodipine, and Nifedipine; diuretics, such as Furosemide; beta-receptor blockers, such as Metoprolol succinate, Metoprolol tartrate, Carvedilol, and Atenolol; and antilipemic drugs, such as Simvastatin, Atorvastatin, Fenofibrate, Pravastatin, and Rosuvastatin.
In this example, the administration dose referred to the amount of Compound I, although the pharmaceutical composition was administered. Two groups of subjects were administered once a day for 56 consecutive days at the daily doses of 0.5 mg (1 capsule for each administration, 0.5 mg of Compound I per capsule) and 2.5 mg (1 capsule for each administration, 2.5 mg of Compound I per capsule), respectively, with 6 subjects for the 0.5 mg/day dose group and also 6 for the 2.5 mg/day dose group. The capsules used here were the capsules prepared in Example 2, i.e., the capsules of Capsule formulation 3 (the capsule with 0.5 mg of Compound I), and Capsule formulation 4 (the capsule containing 2.5 mg of Compound I).
as §7

[7] = Water solubility and permeation of Compound I (statement); format: physicochemical
[8] = Effect of surfactants on absorption in SD rats (Example 4-1); conditions: rat, plasma, oral, 1 mg/kg
Procedure: Blood collection: The animals were fixed and had their tails warmed in a water bath 10 min prior to blood collection; about 100 μL of blood was collected through the tail vein for each animal and put into an anticoagulation tube containing hepatin; the blood samples were subject to centrifugation at 8000 rpm for 6 min at 4° C. to obtain plasma samples, which had to be obtained within 30 minutes after blood was collected; the plasma samples were stored in a freezer at −80° C. for future tests.
Sample analysis: 50 μL of each plasma sample from the freezer was transferred to a centrifugal tube; 100 μL of water and 400 μL of MTBE standard solution (50 ng/mL) were added into the tube and well mixed with the plasma; the obtained mixture was mixed for 10 minutes using a vortex mixer and then subject to centrifugation for 5 minutes (12000 r/min); 300 μL of the supernatant was transferred to another centrifugal tube and blown dry with nitrogen gas; the resultant substance was dissolved in 200 μL of a solution consisting of methanol and water at a ratio of 1:1, of which 20 μL was used for the LC-MS/MS measurement.
Data processing: the compound concentration was output by Analyst 1.6.1 (AB Sciex); the means, standard deviations, and variation coefficients were calculated using Microsoft Excel (no calculation needed if these parameters were directed output by Analyst 1.6.1), and pharmacokinetic parameters were determined using the NCA analysis object in Pharsight Phoenix 6.3.

[9] = healthy subjects, multiple doses 2.5 mg/day

N#Cc1ccc(N2N=C3c4ccc(C(=O)N5CCC(O)CC5)nc4CC[C@@H]3[C@@H]2C2CCCC2)cc1Cl [Compound I, 2-chloro-4-[(3S,3aR)-3-cyclopentyl-7-(4-hydroxylpiperidine-1-carbonyl)-3,3a,4,5-tetrahydro-2H-pyrazolo[3,4-f]quinolin-2-yl]benzonitrile]
AUC(0-t) ([1]; female, 1 mg/kg/day, female SD rats, 1 mg/kg/day intragastric, 13 weeks): 4080 ng·h/mL | AUC(0-t) ([1]; female, 3 mg/kg/day, female SD rats, 3 mg/kg/day intragastric, 13 weeks): 15500 ng·h/mL | AUC(0-t) ([1]; female, 10 mg/kg/day, female SD rats, 10 mg/kg/day intragastric, 13 weeks): 43600 ng·h/mL | AUC(0-t) ([1]; male, 3 mg/kg/day, male SD rats, 3 mg/kg/day intragastric, 13 weeks): 5430 ng·h/mL | AUC(0-t) ([1]; male, 9 mg/kg/day, male SD rats, 9 mg/kg/day intragastric, 13 weeks): 16500 ng·h/mL | AUC(0-t) ([1]; male, 30 mg/kg/day, male SD rats, 30 mg/kg/day intragastric, 13 weeks (steady-state)): 49900 ng·h/mL | NOAEL at 13 weeks ([1]; female SD rats, 13 weeks): 10 mg/kg/day | NOAEL at 13 weeks ([1]; male SD rats, 13 weeks): 30 mg/kg/day | serum potassium level (observation) (SD rats; SD rats, high dose/NOAEL (male 30, female 10 mg/kg/day)): no obvious abnormal serum potassium level was observed; also recorded: serum potassium level was not elevated | K+ (Mean ± SD) (SD rats; female SD rats, 1 mg/kg/day intragastric): 4.4 ± 0.4 mmol/L | K+ (Mean ± SD) (SD rats; female SD rats, 3 mg/kg/day intragastric): 4.4 ± 0.3 mmol/L | K+ (Mean ± SD) (SD rats; female SD rats, 10 mg/kg/day intragastric): 4.5 ± 0.2 mmol/L | K+ (Mean ± SD) (SD rats; male SD rats, 3 mg/kg/day intragastric): 5.0 ± 0.3 mmol/L | K+ (Mean ± SD) (SD rats; male SD rats, 9 mg/kg/day intragastric): 5.0 ± 0.3 mmol/L | K+ (Mean ± SD) (SD rats; male SD rats, 30 mg/kg/day intragastric): 5.1 ± 0.2 mmol/L | side effects (observation) (SD rats; male SD rats, high dose 30 mg/kg/day): No obvious side effect was observed | half-life ([2]; single dose 0.5 mg): 61.5 h | AUC(0-t) ([2]; single dose 0.5 mg capsule, read-out: AUC0-24): 162 ng·h/mL | half-life ([2]; single dose 1.0 mg): 60.9 h | AUC(0-t) ([2]; single dose 1.0 mg capsules, read-out: AUC0-24): 397 ng·h/mL | half-life ([2]; single dose 2.5 mg): 53.3 h | AUC(0-t) ([2]; single dose 2.5 mg capsule, read-out: AUC0-24): 640 ng·h/mL | half-life ([2]; single dose 10 mg): 52.8 h | AUC(0-t) ([2]; single dose 10 mg capsule, read-out: AUC0-24): 3080 ng·h/mL | half-life ([2]; single dose 30 mg): 73.9 h | AUC(0-t) ([2]; single dose 30 mg capsules, read-out: AUC0-24): 5020 ng·h/mL | half-life ([2]; single dose 0.5 to 30 mg/day): ~60 h | AUC(0-t) ([2]; single dose 0.5 to 30 mg/day, read-out: AUC0-24 (range over dose groups)): 162 to 5020 ng·h/mL | serum potassium level (observation) (healthy subjects [3]): no elevated serum potassium level was observed | AUC(0-t) ([4]; 2.5 mg/day, multiple doses 2.5 mg/day): 2860 ± 821 ng·h/mL | AUC(0-t) ([4]; 5 mg/day, multiple doses 5.0 mg/day): 6380 ± 1030 ng·h/mL | serum potassium level (observation) (healthy subjects [5]; healthy subjects (6), multiple doses 5.0 mg/day): transient elevated serum potassium level observed in three subjects; also recorded: elevated serum potassium levels were observed in 3 subjects but were transient | serum potassium level (observation) (healthy subjects [5]; [9]): no elevated serum potassium level observed; also recorded: elevated serum potassium levels were not observed | average steady-state AUC0-24 (AUCtau) (healthy subjects [5]; [9]): 2863 ± 822 ng·h/mL | average steady-state AUC0-24 (AUCtau) (healthy subjects [5]; healthy subjects, multiple doses 5.0 mg/day): 6373 ± 1026 ng·h/mL | AUC individual variation: highest AUC vs lowest AUC subject (healthy subjects [5]; healthy volunteers, capsule, multiple doses 2.5 mg daily): 2.37 times | AUC ([6]; 0.5 mg, mean AUC plus the standard deviation at 0.5 mg, read-out: upper limit of AUC that is safe): 885 ng·h/mL | AUC ([6]; 0.5 mg, mean AUC plus twice the standard deviation at 0.5 mg, read-out: upper limit of AUC that is safe): 1120 ng·h/mL | AUC ([6]; 0.5 mg/day, administered for one day at 0.5 mg/day, read-out: steady-state AUCtau): ≥ 106 ng·h/mL | AUC ([6]; 0.5 mg/day, multiple doses 0.5 mg/day, read-out: average steady-state AUCtau): 652 ± 232 ng·h/mL | AUC ([6]; 2.5 mg, mean AUC plus the standard deviation at 2.5 mg, read-out: upper limit of AUC that is safe): 2890 ng·h/mL | AUC ([6]; 2.5 mg, mean AUC plus twice the standard deviation at 2.5 mg, read-out: upper limit of AUC that is safe): 3170 ng·h/mL | AUC ([6]; 2.5 mg/day, multiple doses 2.5 mg/day, read-out: average safe steady-state AUCtau): 2610 ± 280 ng·h/mL | permeation rate [7]: medium | solubility in water [7]: insoluble in water | bioavailability [8]: 64.7%
